Measurements: patent US20260275280A1, “DIRECTED DIFFERENTIATION PROTOCOLS TO DERIVE BONE FIDE SPINAL SENSORY INTERNEURONS” (THE REGENTS OF THE UNIVERSITY OF CALIFORNIA, priority 2022, published 2026)
Entries after “also recorded” stand apart in the source; their conditions may differ.

Legend:
CHIR-expanded EBs = assay: Differentiation of CHIR-expanded EBs on Matrigel (IHC, RT-qPCR at day 10); type: cell-based, mouse; settings: DAPT added
Protocol: Embryoid body (EB) differentiation: To induce differentiation, EBs were dissociated into smaller clumps by a 5-7-minute treatment with cold 0.25% Trypsin (Gibco), followed by trituration. Trypsin was neutralized with 1:1 addition of Trypsin inhibitor (Sigma-Aldrich) and cells were pelleted by centrifugation at 1000RPM. Cell pellets were resuspended in N2/B27 medium (without growth factors) and plated onto a Matrigel precoated plate. In our experience, the single cell suspension of 100-150 EBs provided enough cells to seed one 24-well plate. […] At the end of 10 days, multiple neural processes can be visualized by phase contrast microscopy and cultures were either fixed with 4% PFA for immunohistochemistry or lysed to extract RNA in RLT buffer (Qiagen). […] CHIR withdrawal), or DAPT, a pro-differentiation agent (Crawford and Roelink, 2007) (FIG. 7J). […] This strategy was successful at restoring almost all dI identities in cultures taken from EBs both at the earliest passage and at the latest passage assessed (passage 7;

Wnt/β-catenin signaling = assay: Inhibition of Wnt/β-catenin signaling during dI differentiation (IHC and RT-qPCR at day 9); type: cell-based, mouse
Protocol: (§1) The mouse ESC line, MM13, was routinely maintained in ES cell media (DMEM+20% FBS) with 100u/ml of mouse leukocyte inducing factor (LIF). […] To prepare cells for the differentiation, ESC colonies were dissociated with 0.25% trypsin and plated on gelatin coated plates at 1:10 dilution to reduce MEF transfer. Cells cultured on gelatin coated plates and allowed to proliferate for 1-2 days. To initiate differentiation, cells were plated on 0.1% gelatin coated 24-well CellBIND dishes (Corning) at 20,000 cells/ml density in 0.5 ml/well N2/B27 medium that contains 10 ng/ml basic fibroblast growth factor (bFGF). The N2/B27 medium contains 1:1 portions of Advanced Dulbecco's modified Eagle Media (DMEM) F12 (Hyclone) and Neurobasal media (Thermo Fisher Scientific) supplemented with 0.5×N2, 1×B27 supplement (with Vitamin A), 2 mM L-glutamine, 0.1 mM 2-mercaptoethanol (ME), and 1% BSA. On day 1, small colonies of cells can be observed attached to the bottom of the wells. On day 2, cells were supplemented with 10 ng/ml bFGF and 5 μM CHIR99021 for 24 hours to induce a neuromesodermal identity (Gouti et al., 2014). On day 3, media was changed as follows: for protocol 1, cells were exposed to 100 nM RA for 48 hrs. For protocol 2, 10 ng/ml human recombinant BMP4 (Thermo Fisher Scientific) was added concomitantly with 100 nM RA (RA+BMP4) for 48 hrs. For protocol 3, cells were exposed to 100 nM RA for 24 hrs, followed by a pulse of RA+BMP4 for another 24 hours. To induce terminal differentiation in all three conditions, the medium containing growth factors was replaced with basic N2/B27 medium at day 5, and cell allowed to differentiate to day 9. At the end of the differentiation, the cultures were fixed for immunohistochemical analysis or lysed to obtain RNA for RNA-Seq or quantitative reverse transcriptase PCR analysis.
Immunohistochemistry: For 2d differentiations, adherent cultures were first washed with 1×PBS and fixed with fresh cold 4% PFA for 10 minutes in the well. Following fixation, cultures were washed twice with 1×PBS to remove any remaining PFA. Cells were blocked with 1×PBS with 1% heat inactivated horse serum for 1 hour and primary antibodies are added in the blocking solution for an overnight incubation at 4C. Following washes, species appropriate secondary antibodies (Jackson Immuno Research Laboratories) were added in 1× PBT (PBS+0.1% […]) for 1 hr. The cultures were then washed with 1× PBT to remove traces of secondary antibodies and counterstained with DAPI to stain nuclei. Plates were then imaged on Zeiss LSM800 inverted confocal microscope at 10× magnification.
(§2) Quantitative (a) RT-PCR analysis: RNA was isolated with RNeasy Mini Kit (Qiagen, cat no. 74104), and converted to cDNA using Superscript IV First Strand Synthesis kit (Thermo Fisher Scientific). qRT-PCR was performed using SYBR Green PCR Master Mix (Applied Biosystems) on Roche 480 Lightcycler (Roche). The relative fold expression was calculated using 2-AACt method of comparing the expression of the target gene with that of the housekeeping gene glyceraldehyde 3-phosphate dehydrogenase (Gapdh). All experiments were repeated at least 2-3 times (technical replicates) from at least two independent differentiations (biological replicates), and data is represented as mean±SEM.
To assess the role of canonical Wnt signaling in dI fate specification, we added endo-IWR1 (IWR1e), a small molecule inhibitor which blocks p-catenin function (Chen et al., 2009) to dPs from day 4-6 (FIG. 5A). By day 9, the RA+BMP4 condition robustly induces dlis-dI3s (FIG. 5F-51, 5N-5P).

hESCs = settings: added to the cell dissociation media (Watanabe et al., 2007, Pettinato et al., 2015); cited from earlier work
mESCs = assay: NMP induction from mESCs with bFGF and CHIR (Sox2/T expression); type: cell-based, mouse; settings: day 2 (48 hr bFGF alone) / day 3 (further 24 hr bFGF and CHIR)
Protocol: as §1, with “For protocol 2, 10 ng/ml human recombinant BMP4 (Thermo Fisher Scientific) was added concomitantly with 100 nM RA (RA+BMP4) for 48 hrs. For protocol 3, cells were exposed to 100 nM RA for 24 hrs, followed by a pulse of RA+BMP4 for another 24 hours. To induce terminal differentiation in all three conditions, the medium containing growth factors was replaced with basic N2/B27 medium at day 5, and cell allowed to differentiate to day 9.” left out, “analysis. […]” for “analysis.”

Wnt-signaling genes = assay: RT-qPCR of selected Wnt genes at day 5 (RA±BMP4, Noggin); type: cell-based, mouse
Protocol: as §2
Additionally, we also found enriched GO terms related to Wnt signaling across three functional categories (FIG. 4C). […] (FIGS. 4D, 4E, 12B). Selected Wnt-signaling genes were further assessed in a qPCR analysis of day 5 NMPs to validate whether they are BMP4-responsive.

[1] = tested on: mESCs-derived NMPs / NPCs; assay: Bulk RNA-Seq differential expression and qRT-PCR after RA or RA+BMP4 treatment; type: cell-based, mouse
Protocol: Bulk-RNA sequencing and data processing: Total cell lysate was obtained in buffer RLT (Qiagen) at different time points from three independent differentiations (biological replicates) conducted parallelly. RNA extraction was performed using RNeasy mini kit (Qiagen) and the quality was determined using Agilent Technologies 2100 Bioanalyzer and only samples with a RIN score >8.0 were sequenced. Stranded libraries were constructed using Universal plus mRNA sequencing kit (NuGEN) and sequenced onto 2 lanes of NovaseqS1 to generate 30 million reads/sample. Obtained reads were aligned to the latest mouse reference genome (mm10) using the STAR spliced read aligner. Pearson correlation and principal component analysis (PCA) was performed to determine the similarities among the samples and replicates. Differentially expressed genes were identified using DESeq and EdgeR package on R platform. The candidate genes were selected using cutoff false discovery rate (FDR <0.05) and log fold change (>2). Differentially expressed gene lists were further subjected to Enrichr, Metascape (Zhou et al., 2019) and DAVID functional annotation tools to identify enriched gene ontology (GO) categories.
as §2
We took advantage of the directed differentiation protocols to investigate the unresolved mechanisms by which RA and BMP direct dI fate specification. To further validate the use of a stem cell model, we first assessed the genetic basis of the fate decisions mediated by RA signaling. During the 24 hr pulse of RA at day 3, Pax3 levels gradually increase, while T expression concomitantly declines (FIG. 12A). […] To identify the transcriptional changes occurring during this first commitment step, we performed bulk RNA-Seq at day 3 (NMP state), day 3.25 (early transcriptional response to RA) and day 4 (dP state1) (FIG. 11B).
We hypothesized that the addition of BMP4 to NPCs in dP state1, directs them to a more dorsal dP state, i.e. dP state2 (FIG. 11A). To define the transcriptional changes occurring after BMP4 addition, we performed bulk RNA-Seq at day 4 (dP state1), day 4.25 (early transcriptional response to RA+BMP4) and at day 5 (dP state2) (FIG. 4A). […] 78 genes, out of 411, were common between both time points (FIGS. 4B, 13B). Focusing on these common genes, we identified enriched functional processes using GO analyses. The GO terms included the BMP signaling pathway (FIG. 4C, Table 3), confirming that the analysis identified BMP responsive genes.

[2] = inhibitor added to RA+BMP4 (protocol 3) from day 4, 48 hours, day 9

Which “Tuj1+ neurites” value (CHIR-expanded EBs; day 10, IHC) does the source give for C[C@H](NC(=O)Cc1cc(F)cc(F)c1)C(=O)N[C@H](C(=O)OC(C)(C)C)c1ccccc1 [DAPT] here?
The value was “increased sprouting of Tuj^+ neurites; also recorded: modest effect increasing the number of Tuj1+neurites”.

What about the “NeuN and Tubb3 expression compared to DMSO” value (CHIR-expanded EBs; day 10, RT-qPCR) of the same molecule?
The value was “did not significantly augment NeuN and Tubb3 expression”.

Which results are given for Oc1nc(-c2ccc(C(F)(F)F)cc2)nc2c1CSCC2 [XAV939]?
dI1 and dI2 differentiation (Wnt/β-catenin signaling; [2]): most strongly suppresses the differentiation of the BMP4-dependent dI1/dI2s; dI3 differentiation (Wnt/β-catenin signaling; [2]): more modest effect on dI3s; dI4, dI5, dI6 fates (Wnt/β-catenin signaling; [2]): increase in the expression of dI4-dI6 specific genes; dP markers Pax3, Pax7, Olig3 (Wnt/β-catenin signaling; inhibitor added to RA+BMP4 condition): prevents both the suppression of Pax7+dPs and induction of Olig3+dPs

For C[C@@H](N)[C@H]1CC[C@H](C(=O)Nc2ccncc2)CC1 [Y-27632], which “apoptosis upon dissociation and EB formation” value (hESCs) is on record?
The value was “significantly inhibit apoptosis and enhance the EB formation”.

With “bFGF: human basic fibroblast growth factor” as the molecule, how does the “Expression of Sox2 and T” value (mESCs) read?
The value was “upregulate Sox2 but not T”.

B1: Noggin: a BMP signaling inhibitor (protein, UniProt Q13253 28-232, looked up)
Noggin: QHYLHIRPAPSDNLPLVDLIEHPDPIFDPKEKDLNETLLRSLLGGHYDPGFMATSPPEDRPGGGGGAAGGAEDLAELDQLLRQRPSGAMPSEIKGLEFSEGLAQGKKQRLSKKLRRKLQMWLWSQTFCPVLYAWNDLGSRFWPRYVKVGSCFSKRSCSVPEGMVCKPSKSVHLTVLRWRCQRRGGQRCGWIPIQYPIISECKCSC
With B1 as the molecule, how does the “upregulation of Wnt expression” value (Wnt-signaling genes; Noggin concomitantly added with BMP4 on day 4) read?
Its value is “upregulation of Wnt expression was suppressed”.

B2: BMP4: human recombinant bone morphogenetic protein 4 (protein, UniProt P12644 293-408, looked up)
Bone morphogenetic protein 4: SPKHHSQRARKKNKNCRRHSLYVDFSDVGWNDWIVAPPGYQAFYCHGDCPFPLADHLNSTNHAIVQTLVNSVNSSIPKACCVPTELSAISMLYLDEYDKVVLKNYQEMVVEGCGCR
With B2 as the molecule, how does the “expression of selected Wnt-signaling genes” value (Wnt-signaling genes; day 5, addition of BMP4 compared to RA alone) read?
Its value is “expression of all genes tested significantly increased”.

And the “upregulated genes common between both time points” value ([1]; 6 hrs and 24 hrs of BMP4+RA treatment)?
Its value is 78 genes.

And the genes upregulated ([1]; 6 hrs of BMP4 addition (day 4.25) vs day 4)?
Its genes upregulated is 106 genes.

What about the genes upregulated ([1]; 24 hrs of BMP4 exposure (day 5) vs day 4) of the same molecule?
The genes upregulated was 305 genes.
